Data on five compounds can be found in patent EP0445735A1, “Melanogenesis-inhibiting endermic preparation” (Sansho Seiyaku Co., Ltd., priority 1990, dated 1991).

In this experiment the test system is B16 cells. Nature of the experiment: Test of whitening B16 cells (whiteness of cell pellets observed with the naked eye). It counts as cell-based. To be noted: for EC (whiteness 3+): Mus musculus, whiteness of cells 3 + (gray), read-out: Concentration of the test compound to give whiteness of cells of being 3 + (gray); for Whiteness of Cells: cell pellets after five days. How it is done: PMC was added to Eagle's MEM medium, to which a fetal calf serum had been added, in a concentration of 100, 50, 20 or 10 µM. 1 × 10⁵ B16 cells were inoculated into the medium. Three days after the inoculation, the medium was exchanged for a fresh one.
Standards of evaluation of whiteness of cells are as follows: 5 + : White 4 + : White to Gray 3 + : Gray 2 + : Gray to Black 1 + : Black (but somewhat paler than control) - : Black

`COC1(C)CCc2c(C)c(O)c(C)c(C)c2O1` (stereo not drawn) [(3), 2,5,7,8-Tetramethyl-2-methoxzy-6-hydroxychroman]: the EC (whiteness 3+) is 50 µM. Still for that read-out and setting: the same measure for `Cc1c2c(c(C(C)C)c(O)c1C(C)C)CCC(C)(C)O2` [(4), 2,2,8-Trimethyl-5,7-diisopropyl-6-hydroxychroman]: 20 µM. With `Cc1c(C)c2c(c(C)c1O)CCC(C)(CO)O2` (stereo not drawn) [(5), 2,5,7,8-Tetramethyl-6-hydroxy-2-hydroxymethylchroman], the EC (whiteness 3+) was determined as 40 µM. Still for that read-out and setting: the result for `CCOC(=O)CC1(C)CCc2c(C)c(O)c(C)c(C)c2O1` (stereo not drawn) [(6), Ethyl 2,5,7,8-tetramethyl-6-hydroxychroman-2-acetate] reads 30 µM.

Regarding `Cc1c(C)c2c(c(C)c1O)CCC(C)(C)O2` [PMC, 2,2,5,7,8-Pentamethyl-6-hydroxychroman], the EC (whiteness 3+) came out at 50 µM. The “Whiteness of Cells” value (Concentration 10 µM) is reported as 1 +. Moreover, the “Whiteness of Cells” value (Concentration 20 µM) is on record as 2 +. Besides, the “Whiteness of Cells” value (Concentration 50 µM) is recorded as 3 +. Also, the “Whiteness of Cells” value (Concentration 100 µM) was 4 +.
